pIC50: −log10 of the molar value. Where two headings read alike, the source gives them in different places.
What was measured:
[1] = biological target: cluster 2b type streptokinase (Streptococcus pyogenes, UniProt P10520); design: species or system group A streptococcal strain A314; settings: cell-based, cluster 2b; for effect on plasminogen activation: concentrations up to 100 µg/ml (around 320–437 µM)
Procedure: (§1) Then inhibitory compounds (LA, PA, oleic, myristic, stearic, palmitic, arachidonic, arachidic, linolenic acid, TXA or EACA) were added. Stocks of LA and PA were prepared in methanol and then diluted in PBS. Stocks of arachidic, oleic, arachidonic, myristic, palmitic, stearic and linolenic acid were prepared in 60% DMSO/PBS and then diluted in PBS. The untreated control received the same amount of PBS as in case of TXA and EACA as control or the same amount of methanol diluted in PBS as in case of LA and PA, respectively, or the same amount of DMSO diluted in PBS as in case of the other commercially available fatty acids. […] The assay was incubated at 37 °C and measured at the beginning of the reaction and then every hour at 405 nm after 3 sec of shaking on a Tecan Sunrise ELISAReader using Magellan software. Each experiment was repeated three times. IC50 values were calculated using Microsoft® Excel software.

[2] = biological target: T1, cluster 2a type streptokinase (Streptococcus pyogenes, UniProt A0A288R465); design: species or system group A streptococcal strain A614; settings: cell-based, cluster 2a
Procedure: The pellet from a mid-log phase culture of the strain A614 (cluster 2a type) or A314 (cluster 2b type) was washed twice with PBS and bacteria were adjusted to an OD600 of 1.0 in HEPES-buffer (10 mM HEPES, 150 mM NaCl, 0.01% Tween 20, pH 7.4). 90 µl of bacterial cells, plasminogen (final concentration 6.7 µg/ml per well) and fibrinogen (final concentration 1 µM per well) were pre-mixed. Then inhibitory compounds (LA, PA, oleic, myristic, stearic, palmitic, arachidonic, arachidic, linolenic acid, TXA or EACA) were added. Stocks of LA and PA were prepared in methanol and then diluted in PBS. Stocks of arachidic, oleic, arachidonic, myristic, palmitic, stearic and linolenic acid were prepared in 60% DMSO/PBS and then diluted in PBS. The untreated control received the same amount of PBS as in case of TXA and EACA as control or the same amount of methanol diluted in PBS as in case of LA and PA, respectively, or the same amount of DMSO diluted in PBS as in case of the other commercially available fatty acids. Then 50 µl of the respective supernatant (supernatant from the strain A614 if cells from A614 were used, supernatant from the strain A314 were used in case of cells from the GAS strain A314) and 3.75 µl 10 mM S-2251 (Chromogenix) were added. The assay was incubated at 37 °C and measured at the beginning of the reaction and then every hour at 405 nm after 3 sec of shaking on a Tecan Sunrise ELISAReader using Magellan software. Each experiment was repeated three times. IC50 values were calculated using Microsoft® Excel software.

[3] = biological target: T1, cluster 2a type streptokinase; test: biochemical; type: biochemical, group A streptococcal strain A614; settings: for pIC50: supernatant-based, cluster 2a
[4] = biological target: cluster 1 type streptokinase (Streptococcus pyogenes, UniProt P10520); type: biochemical, group A streptococcal strain A328; settings: supernatant-based, cluster 1; for effect on plasminogen activation: concentrations up to 100 µg/ml (around 320–437 µM)
Procedure: as §1, with “An overnight culture of the strain A328 (cluster 1 type) or A614 (cluster 2a type) was diluted 1:10 in pre-warmed THY medium and grown to an OD600 of around 0.5 at 37 °C. […] The pellet was resuspended in Tris-HCl buffer (50 mM Tris pH 7.5). Then” for “Then”, “added. Stocks of TXA and EACA were prepared in PBS.” for “added.”, “run” for “incubated”, “°C. The absorption was” for “°C and”

[5] = read-out: inhibition of plasminogen activation

cluster 1 type streptokinase, sequence (P00747 20-810): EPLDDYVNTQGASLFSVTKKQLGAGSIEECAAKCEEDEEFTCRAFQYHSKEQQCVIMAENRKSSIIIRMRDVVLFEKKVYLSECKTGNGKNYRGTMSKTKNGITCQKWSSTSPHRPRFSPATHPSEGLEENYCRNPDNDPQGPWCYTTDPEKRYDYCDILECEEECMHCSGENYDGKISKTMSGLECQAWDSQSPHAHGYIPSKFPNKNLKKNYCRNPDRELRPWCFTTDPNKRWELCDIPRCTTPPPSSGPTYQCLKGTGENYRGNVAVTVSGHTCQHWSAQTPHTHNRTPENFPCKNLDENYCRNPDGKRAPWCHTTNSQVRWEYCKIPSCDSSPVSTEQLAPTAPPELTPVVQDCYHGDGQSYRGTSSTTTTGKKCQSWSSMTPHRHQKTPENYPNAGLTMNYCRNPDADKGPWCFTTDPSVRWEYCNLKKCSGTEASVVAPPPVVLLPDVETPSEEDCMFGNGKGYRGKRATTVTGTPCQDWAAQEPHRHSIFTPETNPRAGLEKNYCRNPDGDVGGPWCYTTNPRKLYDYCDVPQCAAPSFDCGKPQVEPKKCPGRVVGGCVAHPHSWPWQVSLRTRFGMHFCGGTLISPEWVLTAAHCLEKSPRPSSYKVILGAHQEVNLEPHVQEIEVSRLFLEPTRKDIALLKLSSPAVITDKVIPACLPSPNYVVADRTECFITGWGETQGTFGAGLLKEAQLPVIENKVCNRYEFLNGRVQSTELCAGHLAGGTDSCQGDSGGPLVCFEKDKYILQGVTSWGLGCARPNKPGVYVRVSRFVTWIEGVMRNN
cluster 1 type streptokinase, sequence (P10520 27-440): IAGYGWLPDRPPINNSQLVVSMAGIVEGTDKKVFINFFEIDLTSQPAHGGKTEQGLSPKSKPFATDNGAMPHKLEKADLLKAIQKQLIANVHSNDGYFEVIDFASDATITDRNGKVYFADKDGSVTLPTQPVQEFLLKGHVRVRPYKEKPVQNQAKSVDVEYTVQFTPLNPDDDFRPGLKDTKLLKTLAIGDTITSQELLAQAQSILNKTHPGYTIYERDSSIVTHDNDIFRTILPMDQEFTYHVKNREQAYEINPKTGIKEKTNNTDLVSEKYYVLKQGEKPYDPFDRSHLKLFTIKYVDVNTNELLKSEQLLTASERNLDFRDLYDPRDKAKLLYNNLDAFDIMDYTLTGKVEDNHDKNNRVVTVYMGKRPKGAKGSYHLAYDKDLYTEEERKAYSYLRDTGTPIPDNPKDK

NCCCCCC(=O)O [EACA, ε-amino caproic acid, reference compound]
pIC50 [1]: 1.00
pIC50 [2]: < 1.00
pIC50 [3]: < 1.00
pIC50 [4]: < 1.00

NC[C@H]1CC[C@H](C(=O)O)CC1 [TXA, tranexamic acid, reference compound]
pIC50 [2]: 1.00
pIC50 [3]: < 1.00
pIC50 [4]: < 1.00

CCCCC/C=C\C/C=C\C/C=C\C/C=C\CCCC(=O)O [arachidonic acid, reference compound]
effect on plasminogen activation [1]: no effect
effect on plasminogen activation [4]: no effect

CC/C=C\C/C=C\C/C=C\CCCCCCCC(=O)O [linolenic acid, reference compound]
effect on plasminogen activation [1]: no effect
inhibition at 359 µM [3, 5]: 30%

CCCCCCCCCCCCCC(=O)O [myristic acid, reference compound]
effect on plasminogen activation [1]: no effect
effect on plasminogen activation [4]: no effect

CCCCCCCC/C=C\CCCCCCCC(=O)O [oleic acid]
effect on plasminogen activation [1]: no effect
effect on plasminogen activation ([2]; concentrations up to 100 µg/ml (around 320–437 µM)): not active
inhibition at 354 µM [3, 5]: ~45%

CCCCCCCCCCCCCCCC(=O)O [palmitic acid]
effect on plasminogen activation [1]: unspecific marginal inhibitory effects

CCCCCCCCCCCCCCCCCC(=O)O [stearic acid]
effect on plasminogen activation [1]: unspecific marginal inhibitory effects

— article PMC5603603, “Linoleic and palmitoleic acid block streptokinase-mediated plasminogen activation and reduce severity of invasive group A streptococcal infection” (Scientific Reports, 2017)
